Measurements as given in patent US20150216933A1, “HEMATOPOIETIC STEM CELL GROWTH FACTOR” (DUKE UNIVERSITY, priority 2008, published 2015).

B1: Fit-3 ligand: cytokine, 50 ng/mL alone in culture (protein, UniProt P49771 27-235, looked up)
Fms-related tyrosine kinase 3 …: TQDCSFQHSPISSDFAVKIRELSDYLLQDYPVTVASNLQDEELCGGLWRLVLAQRWMERLKTVAGSKMQGLLERVNTEIHFVTKCAFQPPPSCLRFVQTNISRLLQETSEQLVALKPWITRQNFSRCLELQCQPDSSTLPPPWSPRPLEATAPTAPQPPLLLLLLLPVGLLLLAAAWCLHWQRTRRRTPRPGEQVPPVPSPQDLLLVEH

Legend:
[1] = tested on: PI 3-kinase; assay type: cell-based, mouse
From the text: In order to determine a potential mechanism through which PTN mediates HSC expansion, an examination was made as to whether PTN altered pathways that are known to be affected by RPTPβ/ζ (Meng et al, Proc Natl Acad Sci USA 97: 2603-8 (2000), Stoica et al, J Biol Chem 276:16772-9 (2001), Landgraf et al, J Biol Chem 283:25036-45 (2008), Deuel et al, Arch Biochem Biophys 397:162-71 (2002)). Canonical PTN signaling occurs via binding and inactivation of RPTPβ/ζ (Meng et al, Proc Natl Acad Sci USA 97: 2603-8 (2000)), which can facilitate the tyrosine phosphorylation of several intracellular substrates, including Akt and β-catenin (Souttou et al, J Biol Chem 272:19588-93 (1997), Gu et al, FEBS Lett 581:382-8 (2007)). […] BM 34^− KSL cells were treated with TSF with and without 100 ng/mL PTN in the presence and absence of 10 μM wortmannin, a PI 3-kinase inhibitor (Souttou et al, J Biol Chem 272:19588-93 (1997)).

[2] = tested on: Bone marrow lineage negative (lin-) progenitor cells; assay: 7 day culture of bone marrow lin- progenitor cells with individual cytokines or TSF with and without PTN; assay type: cell-based; conditions: 7 days, individual cytokine
Protocol: Bone marrow lineage negative (lin-) progenitor cells were placed in culture for 7 days with 20 ng/mL thromobopoietin (TPO), 120 ng/mL stem cell factor (SCF) or 50 ng/mL Flt-3 ligand or the combination of all 3 cytokines (TSF) with and without 100 ng/mL pleiotrophin (PTN).

| Molecule | reduction in BM KSL cell expansion compared to TSF+PTN alone [1] | reduction in total cell expansion compared to TSF+PTN alone [1] | support of BM progenitor cells in culture [2] |
| --- | --- | --- | --- |
| COC[C@H]1OC(=O)c2coc3c2[C@@]1(C)C1=C(C3=O)[C@@H]2CCC(=O)[C@@]2(C)C[C@H]1OC(C)=O [wortmannin] | 8.1 fold | 3.4 fold |  |
| thromobopoietin: cytokine, 20 ng/mL alone in culture |  |  | Neither thromobopoietin alone nor Fit-3 ligand alone supported viable BM progenitor cells |
| SCF: stem cell factor, 120 ng/mL, with or without PTN |  |  | modest expansion |
| B1 |  |  | Neither thromobopoietin alone nor Fit-3 ligand alone supported viable BM progenitor cells |
